Data published in ChEMBL document CHEMBL1201862, “PubChem BioAssay data set” (2004).
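Method: 48-hour compound exposure of cells in 96-well plates, five concentrations, linear interpolation of endpoints. GI50 marks 50% less growth.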 The source made the active and inactive calls. Cut-off read from the data, not from the text of the source: active = GI50 up to about 1.1 µM and inactive = higher.

Experiments:
Assay in all cases: NCI anticancer screen, dose series, 48 h
[1] = system: SF-295
[2] = system: NCI-H522
[3] = system: MDA-MB-231
[4] = system: SW-620
[5] = system: TK-10
[6] = system: NCI/ADR-RES
[7] = system: OVCAR-8
[8] = system: OVCAR-3
[9] = system: T47D
[10] = system: SK-MEL-5
[11] = system: ACHN
[12] = system: UACC-257
[13] = system: UO-31
[14] = system: M14
[15] = system: SK-MEL-28
[16] = system: UACC-62
[17] = system: SN12C
[18] = system: SNB-19
[19] = system: MCF7
[20] = system: PC-3

Row | SMILES | GI50 [1] | GI50 [2] | GI50 [3] | GI50 [4] | GI50 [5] | GI50 [6] | GI50 [7] | GI50 [8] | GI50 [9] | GI50 [10] | GI50 [11] | GI50 [12] | GI50 [13] | GI50 [14] | GI50 [15] | GI50 [16] | GI50 [17] | GI50 [18] | GI50 [19] | GI50 [20]
1 | O=C1c2ccccc2C(=O)c2c1ccc1c3ccccc3n(-c3ccccc3)c21 | 18.2 µM (inactive) | 15.4 µM (inactive) | 22.4 µM (inactive) | 15.8 µM (inactive) | 40.8 µM (inactive) | 39.7 µM (inactive) | 27.2 µM (inactive) | 19.5 µM (inactive) | 14.6 µM (inactive) | 16.1 µM (inactive) | 17.3 µM (inactive) | 20.7 µM (inactive) | 21.3 µM (inactive) | 12.4 µM (inactive) | 17.9 µM (inactive) | 14.7 µM (inactive) | 17.8 µM (inactive) | 75.5 µM (inactive) | 16 µM (inactive) | 28.1 µM (inactive)
2 | O=C(O)CCc1nc(-c2ccccc2-n2cccc2)no1 | 49.9 µM (inactive) | 31 µM (inactive) | > 100 µM (inactive) | > 100 µM (inactive) | > 100 µM (inactive) | > 100 µM (inactive) | > 100 µM (inactive) | 29 µM (inactive) | > 100 µM (inactive) | > 100 µM (inactive) | > 100 µM (inactive) | > 100 µM (inactive) | > 100 µM (inactive) | 89.1 µM (inactive) | > 100 µM (inactive) | > 100 µM (inactive) | > 100 µM (inactive) | > 100 µM (inactive) | 49.3 µM (inactive) | > 100 µM (inactive)
3 | O=C1Nc2ccc(Br)cc2/C1=N/S(=O)(=O)O | 33.7 µM (inactive) | 31.3 µM (inactive) | 16.3 µM (inactive) | 18.2 µM (inactive) | 14.5 µM (inactive) | 29.4 µM (inactive) | 24.4 µM (inactive) | 40.7 µM (inactive) | 29 µM (inactive) | 16.1 µM (inactive) | 45.9 µM (inactive) | 15.9 µM (inactive) | 35 µM (inactive) | 38.5 µM (inactive) | 30.9 µM (inactive) | 18.7 µM (inactive) | 18.4 µM (inactive) | > 100 µM (inactive) | 17.8 µM (inactive) | 13.3 µM (inactive)
4 | C=C1CCCC(C)(C)C1CCC1(C)CCC(C(C)C(=O)OC)OO1 (stereo not given) | 4.48 µM (inactive) | 3.34 µM (inactive) | 9.08 µM (inactive) | 7.6 µM (inactive) | 4.28 µM (inactive) | 7.08 µM (inactive) | 6.62 µM (inactive) | 21.8 µM (inactive) | 4.32 µM (inactive) | 5.19 µM (inactive) | 1.27 µM (inactive) | > 20.2 µM (inactive) | 0.748 µM (active) | 9.66 µM (inactive) | 20.6 µM (inactive) | 5.62 µM (inactive) | 3.77 µM (inactive) | 9.08 µM (inactive) | > 21.5 µM (inactive) | 3.74 µM (inactive)
5 | C#CCn1ncc2c(SCc3ccccc3)ncnc21 | 53.5 µM (inactive) | 73.1 µM (inactive) | > 100 µM (inactive) | > 100 µM (inactive) | > 100 µM (inactive) | > 100 µM (inactive) | > 100 µM (inactive) | > 100 µM (inactive) | 3.05 µM (inactive) | 36.1 µM (inactive) | > 100 µM (inactive) | 70 µM (inactive) | 89.7 µM (inactive) | 50.7 µM (inactive) | > 100 µM (inactive) | > 100 µM (inactive) | > 100 µM (inactive) | > 100 µM (inactive) | 11.4 µM (inactive) | 86.1 µM (inactive)
6 | Cc1cc(C2(c3cc(C)c(O)c4ncccc34)OC(=O)c3ccccc32)c2cccnc2c1O | 0.0299 µM (active) | 0.01 µM (active) | 0.0692 µM (active) | 0.0304 µM (active) | > 10 µM (inactive) | 0.0344 µM (active) | 0.00615 µM (active) | 0.0056 µM (active) | 0.0382 µM (active) | 0.0231 µM (active) | 0.00662 µM (active) | 2.77 µM (inactive) | 0.00574 µM (active) | 0.0625 µM (active) | > 10 µM (inactive) | 0.0158 µM (active) | 0.0353 µM (active) | 0.0174 µM (active) | < 0.001 µM (active) | 0.265 µM (active)
7 | CC1CC(Br)C(=O)O1 (stereo not given) | > 100 µM (inactive) | > 100 µM (inactive) | > 100 µM (inactive) | > 100 µM (inactive) | > 100 µM (inactive) | > 100 µM (inactive) | > 100 µM (inactive) | > 100 µM (inactive) | > 100 µM (inactive) | > 100 µM (inactive) | > 100 µM (inactive) | > 100 µM (inactive) | > 100 µM (inactive) | > 100 µM (inactive) | > 100 µM (inactive) | > 100 µM (inactive) | > 100 µM (inactive) | > 100 µM (inactive) | > 100 µM (inactive) | > 100 µM (inactive)
8 | CC(=O)Nc1ccc(/C=C/[N+](=O)[O-])cc1 | 5.71 µM (inactive) | 0.24 µM (active) | 1.81 µM (inactive) | 2.64 µM (inactive) | 1.75 µM (inactive) | 8.09 µM (inactive) | 6.07 µM (inactive) | 2.98 µM (inactive) | 4.1 µM (inactive) | 2.36 µM (inactive) | 3.42 µM (inactive) | 5.21 µM (inactive) | 2 µM (inactive) | 2.59 µM (inactive) | 1.83 µM (inactive) | 2 µM (inactive) | 3.37 µM (inactive) | 7.19 µM (inactive) | 2.79 µM (inactive) | 5.71 µM (inactive)
9 | O=C(CSCC(=O)N/N=C\c1ccc(-c2ccccc2)cc1)N/N=C\c1ccc(-c2ccccc2)cc1 | 18.2 µM (inactive) | 13.5 µM (inactive) | 10.7 µM (inactive) | 16.3 µM (inactive) | 26 µM (inactive) | 56.4 µM (inactive) | 24.6 µM (inactive) | 16.1 µM (inactive) | 34.9 µM (inactive) | 39.9 µM (inactive) | 23.9 µM (inactive) | 35.7 µM (inactive) | 28.5 µM (inactive) | 23.8 µM (inactive) | 29.6 µM (inactive) | 22.9 µM (inactive) | 24.7 µM (inactive) | 26.2 µM (inactive) | 36.1 µM (inactive) | 30.4 µM (inactive)
10 | COC(=O)[C@]12CC[C@H]3CN(C(=O)OCc4ccccc4)[C@H]([C@H]31)[C@H](C(=O)OCC[Si](C)(C)C)N2S(=O)(=O)c1ccc(C)cc1 | 29 µM (inactive) | > 100 µM (inactive) | 8.13 µM (inactive) | > 100 µM (inactive) | > 100 µM (inactive) | > 100 µM (inactive) | > 100 µM (inactive) | > 100 µM (inactive) | 5.32 µM (inactive) | 12.2 µM (inactive) | 54.7 µM (inactive) | 20 µM (inactive) | 30.3 µM (inactive) | 26.5 µM (inactive) | > 100 µM (inactive) | > 100 µM (inactive) | > 100 µM (inactive) | > 100 µM (inactive) | 37.3 µM (inactive) | 12.1 µM (inactive)
11 | CC1=C/C(=N\NS(=O)(=O)c2ccc([N+](=O)[O-])cc2)CC(C)(C)C1 | > 100 µM (inactive) | 86.5 µM (inactive) | > 100 µM (inactive) | > 100 µM (inactive) | > 100 µM (inactive) | 93.5 µM (inactive) | > 100 µM (inactive) | > 100 µM (inactive) | > 100 µM (inactive) | 66.1 µM (inactive) | 54.6 µM (inactive) | 80.5 µM (inactive) | 80.7 µM (inactive) | > 100 µM (inactive) | > 100 µM (inactive) | 50.2 µM (inactive) | 73.5 µM (inactive) | 69 µM (inactive) | > 100 µM (inactive) | > 100 µM (inactive)
12 | CCCC(=O)OC[n+]1ccc(-c2c(COC(=O)NC(C)C)c(COC(=O)NC(C)C)c3n2CCC3)cc1 | 81.7 µM (inactive) | > 100 µM (inactive) | > 100 µM (inactive) | > 100 µM (inactive) | > 100 µM (inactive) | > 100 µM (inactive) | > 100 µM (inactive) | > 100 µM (inactive) | > 100 µM (inactive) | > 100 µM (inactive) | 15.4 µM (inactive) | > 100 µM (inactive) | > 100 µM (inactive) | > 100 µM (inactive) | > 100 µM (inactive) | 47 µM (inactive) | > 100 µM (inactive) | > 100 µM (inactive) | 80.7 µM (inactive) | 92.7 µM (inactive)
13 | CC(C)(C)OC(=O)NC(Cc1ccc(OCc2ccccc2)cn1)C(=O)N1CCSCC1 (stereo not given) | 37.2 µM (inactive) | 32.9 µM (inactive) | > 100 µM (inactive) | 81.7 µM (inactive) | 47.3 µM (inactive) | 27.7 µM (inactive) | 40.1 µM (inactive) | 62.2 µM (inactive) | 20.8 µM (inactive) | 16.3 µM (inactive) | 57.3 µM (inactive) | 26.4 µM (inactive) | 50.6 µM (inactive) | 54.8 µM (inactive) | 78.7 µM (inactive) | 52.5 µM (inactive) | 44.6 µM (inactive) | > 100 µM (inactive) | 38.3 µM (inactive) | 31.4 µM (inactive)
14 | CC/C(Cl)=N\OC(=O)Nc1ccc(OC)c(C)c1 | 80.4 µM (inactive) | 2.21 µM (inactive) | 30.6 µM (inactive) | 24.3 µM (inactive) | 20.6 µM (inactive) | 15 µM (inactive) | 17.5 µM (inactive) | 16.4 µM (inactive) | 13.9 µM (inactive) | 18.7 µM (inactive) | 8.93 µM (inactive) | 16.5 µM (inactive) | 15.3 µM (inactive) | 17.9 µM (inactive) | 23.2 µM (inactive) | 15 µM (inactive) | 15.9 µM (inactive) | 42.1 µM (inactive) | 16.7 µM (inactive) | 28.8 µM (inactive)
